Values quoted from earlier work as cited in EP4223883A1, “PROCESS FOR PRODUCING TRYPTAMINES” (Infinit Biosystems, priority 2022, dated 2023).

How the values were obtained:
[1] = molecular target: T1, PSI K, 4-hydroxytryptamine kinase, Psilocybe cubensis, Uniprot: P0DPA8 (Psilocybe cubensis, UniProt P0DPA8); conditions: substrate taken from the text, not given; Km of the cofactor (ATP) considered equal
T1 sequence (P0DPA8 1-362): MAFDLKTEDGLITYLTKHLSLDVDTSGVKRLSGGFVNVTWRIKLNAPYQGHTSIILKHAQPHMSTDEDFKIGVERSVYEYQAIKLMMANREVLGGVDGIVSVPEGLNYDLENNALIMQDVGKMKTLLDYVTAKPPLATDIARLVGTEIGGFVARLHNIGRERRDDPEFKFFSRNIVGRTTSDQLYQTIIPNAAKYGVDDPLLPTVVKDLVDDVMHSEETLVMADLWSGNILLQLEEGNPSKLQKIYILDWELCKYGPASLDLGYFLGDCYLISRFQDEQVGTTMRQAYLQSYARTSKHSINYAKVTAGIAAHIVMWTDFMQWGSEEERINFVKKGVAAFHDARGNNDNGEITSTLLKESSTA

[2] = tested on: PSI M, N-methyltransferase, Psilocybe cubensis, Uniprot: P0DPA9
[3] = tested on: T2, PSI H, Tryptamine 4-monooxygenase, Psilocybe cubensis, Uniprot: A0A286LF02; conditions: substrate taken from the text, not given; Km of the cofactor (NADPH) considered equal
T2 sequence (A0A286LF02 20-507): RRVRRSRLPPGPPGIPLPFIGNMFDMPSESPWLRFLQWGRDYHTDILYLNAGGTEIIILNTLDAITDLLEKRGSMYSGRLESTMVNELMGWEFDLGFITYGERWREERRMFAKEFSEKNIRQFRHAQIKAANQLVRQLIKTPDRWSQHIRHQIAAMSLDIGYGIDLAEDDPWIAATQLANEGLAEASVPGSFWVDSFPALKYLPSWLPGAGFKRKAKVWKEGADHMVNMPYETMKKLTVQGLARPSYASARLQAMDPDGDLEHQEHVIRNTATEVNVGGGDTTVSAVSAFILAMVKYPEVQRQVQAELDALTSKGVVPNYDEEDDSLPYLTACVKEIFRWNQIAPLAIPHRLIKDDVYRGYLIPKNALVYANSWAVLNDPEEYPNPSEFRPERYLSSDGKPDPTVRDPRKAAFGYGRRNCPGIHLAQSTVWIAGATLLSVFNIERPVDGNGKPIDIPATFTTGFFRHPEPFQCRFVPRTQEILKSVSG

## NCCc1c[nH]c2cccc(O)c12 [4-hydroxytryptamine]
[1]
  Km: 80 µM

## NCCc1c[nH]c2cccc(OP(=O)(O)O)c12 [norbaeocystin]
[2]
  Km: 165 µM

## NCCc1c[nH]c2ccccc12 [tryptamine, Tryptamine]
[3]
  Km: 220 µM
